8 compounds from ChEMBL document CHEMBL3739369, “Identification of Elaiophylin Skeletal Variants from the Indonesian Streptomyces sp. ICBB 9297” (2015) can be followed below.

SMILES strings stand for the structures. Converted amounts (≈) assume the structure as drawn. Bounds are passed on as bounds.

What all share (type): functional
Assay [1] relates to Mycolicibacterium smegmatis. Kind of assay: Antimicrobial activity against Mycobacterium smegmatis ATCC 14468 for 17 to 48 hrs by MTT assay.
In a further assay the test system is Bacillus subtilis. In words: Antimicrobial activity against Bacillus subtilis ATCC 6051 for 17 to 48 hrs by MTT assay. (In general: Tetrazolium dyes change colour on reduction, which living cells bring about.)
In another assay the test system is Escherichia coli. In words: Antimicrobial activity against Escherichia coli ATCC 11775 for 17 to 48 hrs by MTT assay.
A further assay concerns Staphylococcus aureus. In words: Antimicrobial activity against Staphylococcus aureus ATCC 12600 for 17 to 48 hrs by MTT assay.
The next assay deals with Pseudomonas aeruginosa. In words: Antimicrobial activity against Pseudomonas aeruginosa ATCC 9721 for 17 to 48 hrs by MTT assay.

Broadly, the MIC is the lowest concentration that inhibits growth of the organism. A lower MIC goes with a more susceptible organism. `CN[C@@H]1[C@@H](O[C@H]2O[C@H](CO)[C@@H](N)[C@H](O)[C@H]2O)O[C@H]2C[C@@H](N)[C@@H](O[C@H]3[C@H](O)[C@@H](O)[C@H](N)C[C@@H]3N)O[C@@H]2[C@@H]1O`: in assay [1], the MIC is 0.39 µg/mL (≈ 0.723 µM).

Turning to `CC[C@@H]1[C@@H](C)O[C@@](OC)([C@@H](C)[C@H](O)[C@H](C)[C@H]2OC(=O)/C=C/C=C/[C@H](C)[C@@H]([C@@H](C)[C@@H](O)[C@H](C)[C@@]3(O)C[C@@H](O[C@H]4C[C@H](O)[C@H](O)[C@H](C)O4)[C@H](CC)[C@@H](C)O3)OC(=O)/C=C/C=C/[C@@H]2C)C[C@H]1O[C@H]1C[C@H](O)[C@H](O)[C@H](C)O1`, the MIC is > 100 µg/mL with Bacillus subtilis; > 100 µg/mL in the assay with Escherichia coli; 1.56 µg/mL (≈ 1.5 µM) with Staphylococcus aureus; > 100 µg/mL in assay [1]; > 100 µg/mL in the assay on Pseudomonas aeruginosa.

In the case of `CC[C@@H]1[C@@H](C)O[C@@](OC)([C@@H](C)[C@H](O)[C@H](C)[C@H]2OC(=O)/C(C)=C/C=C/[C@H](C)[C@@H]([C@@H](C)[C@@H](O)[C@H](C)[C@@]3(OC)C[C@@H](O[C@H]4C[C@H](O)[C@H](O)[C@H](C)O4)[C@H](CC)[C@@H](C)O3)OC(=O)/C(C)=C/C=C/[C@@H]2C)C[C@H]1O[C@H]1C[C@H](O)[C@H](O)[C@H](C)O1`, the MIC against Bacillus subtilis is > 100 µg/mL; in the assay on Escherichia coli, > 100 µg/mL; against Staphylococcus aureus, 3.13 µg/mL (≈ 2.89 µM); in assay [1] it was > 100 µg/mL; against Pseudomonas aeruginosa, > 100 µg/mL.

As for `CC[C@@H]1[C@@H](C)O[C@@](O)([C@@H](C)[C@H](O)[C@H](C)[C@H]2OC(=O)/C=C/C=C/[C@H](C)[C@@H]([C@@H](C)[C@@H](O)[C@H](C)[C@@]3(O)C[C@@H](O[C@H]4C[C@H](O)[C@H](O)[C@H](C)O4)[C@H](CC)[C@@H](C)O3)OC(=O)/C(C)=C/C=C/[C@@H]2C)C[C@H]1O[C@H]1C[C@H](O)[C@H](O)[C@H](C)O1`, the MIC in the assay on Bacillus subtilis was > 100 µg/mL; in the assay with Escherichia coli it was > 100 µg/mL; in the assay with Staphylococcus aureus, 0.78 µg/mL (≈ 0.751 µM); in assay [1] it was 6.25 µg/mL (≈ 6.01 µM); against Pseudomonas aeruginosa, > 100 µg/mL.

As to `CC[C@@H]1[C@@H](C)O[C@@](OC)([C@@H](C)[C@H](O)[C@H](C)[C@H]2OC(=O)/C=C/C=C/[C@H](C)[C@@H]([C@@H](C)[C@@H](O)[C@H](C)[C@@]3(OC)C[C@@H](O[C@H]4C[C@H](O)[C@H](O)[C@H](C)O4)[C@H](CC)[C@@H](C)O3)OC(=O)/C(C)=C/C=C/[C@@H]2C)C[C@H]1O[C@H]1C[C@H](O)[C@H](O)[C@H](C)O1`, the MIC against Bacillus subtilis was > 100 µg/mL; against Escherichia coli, > 100 µg/mL; in the assay on Staphylococcus aureus it was 1.56 µg/mL (≈ 1.46 µM); in assay [1], 6.25 µg/mL (≈ 5.86 µM); against Pseudomonas aeruginosa it was > 100 µg/mL.

With `CC[C@@H]1[C@@H](C)O[C@@](O)([C@@H](C)[C@H](O)[C@H](C)[C@H]2OC(=O)/C=C/C=C/[C@H](C)[C@@H]([C@@H](C)[C@@H](O)[C@H](C)[C@@]3(O)C[C@@H](O[C@H]4C[C@H](O)[C@H](O)[C@H](C)O4)[C@H](CC)[C@@H](C)O3)OC(=O)/C=C/C=C/[C@@H]2C)C[C@H]1O[C@H]1C[C@H](O)[C@H](O)[C@H](C)O1`, the MIC is > 100 µg/mL against Bacillus subtilis; > 100 µg/mL against Escherichia coli; 0.78 µg/mL (≈ 0.761 µM) in the assay on Staphylococcus aureus; > 100 µg/mL in assay [1]; > 100 µg/mL against Pseudomonas aeruginosa.

In the case of `CC[C@@H]1[C@@H](C)O[C@@](OC)([C@@H](C)[C@H](O)[C@H](C)[C@H]2OC(=O)/C=C/C=C/[C@H](C)[C@@H]([C@@H](C)[C@@H](O)[C@H](C)[C@@]3(OC)C[C@@H](O[C@H]4C[C@H](O)[C@H](O)[C@H](C)O4)[C@H](CC)[C@@H](C)O3)OC(=O)/C=C/C=C/[C@@H]2C)C[C@H]1O[C@H]1C[C@H](O)[C@H](O)[C@H](C)O1`, the minimum inhibitory concentration (MIC) against Bacillus subtilis was > 100 µg/mL; with Escherichia coli, > 100 µg/mL; in the assay with Staphylococcus aureus, 1.56 µg/mL (≈ 1.48 µM); in assay [1], > 100 µg/mL; with Pseudomonas aeruginosa it was > 100 µg/mL.

With `CC1(C)S[C@@H]2[C@H](NC(=O)[C@H](N)c3ccccc3)C(=O)N2[C@H]1C(=O)O` [AMPICILLIN], the MIC was 0.78 µg/mL (≈ 2.23 µM) in the assay on Bacillus subtilis; 6.25 µg/mL (≈ 17.9 µM) against Escherichia coli; 0.78 µg/mL (≈ 2.23 µM) against Staphylococcus aureus; > 100 µg/mL in assay [1]; 1.56 µg/mL (≈ 4.46 µM) against Pseudomonas aeruginosa.
